Results on 1 substance are retold here after patent US20250302913A1, “LACRIPEP PROMOTES NEUROREGENERATION AND MAINTAINS EPITHELIAL PROGENITOR CELL IDENTITY” (The Regents of The University of California, priority 2022, published 2025).

What all share (format): in vivo, mouse
One assay concerns Aire KO corneas. Put plainly: Epithelial barrier function by lissamine green uptake. An excerpt: As dry eye results in disruption of ocular surface integrity resulting in cornea barrier dysfunction and, consequently, fluid loss and pathogen invasion (11), we next determined whether lacripep maintains corneal epithelial architecture by analyzing lissamine green uptake at day 7 and 15. […] Restoration of barrier function was further confirmed by analyzing the superficial epithelial layers for the tight junction protein ZO1 which is essential to the structural integrity of the corneal epithelium (12).
(§1) Aire KO female mice aged 5 weeks were used for the study. All mice were topically treated with 5 μL per eye of 4 μM lacripep. Dosing was three times daily for 14 consecutive days. Lissamine green staining assessment and tear secretion assays were performed on each eye before treatment at baseline, 7 days and 14 days post treatment
After mice were anesthetized with isoflurane, 5 μL of lissamine green dye (1%) was applied to the lower conjunctival cul-de-sac. […] Lissamine green staining was scored by dividing the cornea into four quadrants, the extent of staining in each quadrant was classified as Grade 0, no staining; Grade 1, sporadic (<25%); Grade 2, diffuse punctate (25-75%), or Grade 3, coalesced punctate staining (75% or more). The total score was calculated separately for each eye and equaled the sum of all four quadrants ranging from 0 (no staining) to 12 (most severe staining). […]

In assay [1] the test system is Aire KO mice. Put plainly: Pilocarpine-stimulated (maximal) tear secretion in Aire KO mice. To be noted: between Aire KO treatment conditions; 4.5 mg/kg pilocarpine i.p.
Description: We next tested whether lacripep restored basal cell identity and barrier function by reducing immune cell infiltration. Prolonged desiccating stress from reduced tear production elicits an immune response in which activated CD4+ T cells home to the corneal epithelium and stroma (primarily accumulating at the limbal region) to modulate epithelial differentiation (17) and direct the development of autoimmune mediated dry eye (18).
as §1
(§2) Mice were anesthetized with isoflurane and basal tear secretion was then measured using a Zone-Quick phenol red thread (as indicated by the length of the tear-absorbed region in 15 seconds). Stimulated tear secretion was measured after 4.5 mg/kg of pilocarpine diluted in saline was injected into the peritoneum (i.p.). Ten minutes later, mice were anesthetized with isoflurane and tear secretion was measured using a Zone-Quick phenol red thread (Showa Yakuhin Kako Co. Ltd., Tokyo, Japan).

Assay [2] relates to intraepithelial sensory nerve terminals. The assay is described as follows: Intraepithelial sensory nerve terminals by 3D imaging (IMARIS). To be noted: day 7. An excerpt: We next determined the extent of functional reinnervation of the cornea at day 7 by assessing the distribution of sensory nerve endings (nerve terminals) within the epithelial layers in lacripep-treated Aire KO corneas compared to WT and PBS KO controls (FIG. 3D). Sensory nerve terminals within the corneal epithelium respond to changes in the thickness and stability of the tear film to promote basal tear secretion, while also triggering epithelial responses to restore homeostasis through the release of neurotransmitters. […]
Quantification of corneal epithelial nerve density and synapses. Tissue sections: TUBB3+ nerve density within 300 μm sections of central cornea epithelial ROI was quantified by applying Tsai's thresholding method (Moments), with integrated densities within the ROI of the thresholded image being recorded. Corneal whole mounts: The density of nerves expressing GAP43, TUBB3, or GAP43 and TUBB3 (% Area of 354 μm×396 μm) was quantified from central cornea images of whole mount cornea and plotted in a stacked bar graph to visualize the proportion of each of the three nerve types. Similarly, numbers of synapses marked by expression of GAP43, TUBB3, or GAP43 and TUBB3 were counted per respective region of central cornea (100 μm2) and plotted in a stacked bar graph. […]
3D reconstruction of nerve fibers. […] Touching nuclei were split by the calculated seed points inside each area.

In assay [3] the test system is Aire KO mice. Put plainly: Basal tear secretion (phenol red thread) in Aire KO dry eye mice. To be noted: day 15, 4 μM topical 3x per day for 14 days. Here is the method: To determine the impact of lacripep on physiological (basal) tear secretion, lacripep (4 μM) or phosphate buffered saline (PBS, control) was topically applied to Aire KO corneas 3 times (3×) per day for 14 consecutive days (from 5 to 7 wk of age) and tear production was measured at day 0, 7 and 15 (FIG. 1A).
All procedures were approved by the UCSF Institutional Animal Care and Use Committee (IACUC) and adhered to the NIH Guide for the Care and Use of Laboratory Animals (Approval number: 332AN089075-02). Wild type (WT) and Aire-deficient mice on the BALB/c background (BALB/c Aire KO) were the gift of Mark Anderson, University of California, San Francisco. Adult female mice (aged between 5 and 7 weeks) were used in all experiments. […] Appropriate sample size was calculated using power calculations. […]
as §2

As for “Ac-KQFIENGSEFAQKLLKKFSLLKPWA-NH2 [lacripep, amino terminus acetylated, carboxyl terminus aminated]”, the lissamine green uptake result with Aire KO corneas (day 7, compared to WT controls) is “increased lissamine green uptake compared to WT controls”. In addition, the “epithelial barrier function (lissamine green uptake)” value in the assay on Aire KO corneas (day 15, uptake levels resembling WT corneas) was “significantly improved”. Also, the “maximal tear secretion in response to pilocarpine” value with Aire KO mice [1] is listed as “no difference”. Moreover, in assay [2] (PBS 5, WT 78), the “intraepithelial sensory nerve terminals” value stood at 50 per 0.1 mm^2. Further, in assay [2] (compared to WT controls), the “proportion of sensory nerve terminals expressing GAP43 as opposed to only TUBB3” value is recorded as “increase”. The “basal tear volumes relative to WT” value in the assay on Aire KO mice [3] is given as 83 % of WT.
